The values that follow are results of earlier work, collected in publication PMC9516332 (Frontiers in Oncology, 2022).

Common to all, as to conditions: cited from earlier work
The target in series [1] is panel of 255 wild-type kinases (Homo sapiens, UniProt O60674).
Series [2] concerns the target panel of 255 wild-type kinases (Homo sapiens, UniProt P07332).
Series [3] addresses panel of 255 wild-type kinases (Homo sapiens, UniProt P08922).
In series [4] the target is panel of 255 wild-type kinases (Homo sapiens, UniProt P16591).
Series [5] concerns the target panel of 255 wild-type kinases (Homo sapiens, UniProt P24941).
Series [6] deals with panel of 255 wild-type kinases (Homo sapiens, UniProt P49759).
Series [7] deals with panel of 255 wild-type kinases (Homo sapiens, UniProt P49761).
Series [8] deals with T1, panel of 255 wild-type kinases (Homo sapiens, UniProt P51813).
T1 sequence (P51813 1-675): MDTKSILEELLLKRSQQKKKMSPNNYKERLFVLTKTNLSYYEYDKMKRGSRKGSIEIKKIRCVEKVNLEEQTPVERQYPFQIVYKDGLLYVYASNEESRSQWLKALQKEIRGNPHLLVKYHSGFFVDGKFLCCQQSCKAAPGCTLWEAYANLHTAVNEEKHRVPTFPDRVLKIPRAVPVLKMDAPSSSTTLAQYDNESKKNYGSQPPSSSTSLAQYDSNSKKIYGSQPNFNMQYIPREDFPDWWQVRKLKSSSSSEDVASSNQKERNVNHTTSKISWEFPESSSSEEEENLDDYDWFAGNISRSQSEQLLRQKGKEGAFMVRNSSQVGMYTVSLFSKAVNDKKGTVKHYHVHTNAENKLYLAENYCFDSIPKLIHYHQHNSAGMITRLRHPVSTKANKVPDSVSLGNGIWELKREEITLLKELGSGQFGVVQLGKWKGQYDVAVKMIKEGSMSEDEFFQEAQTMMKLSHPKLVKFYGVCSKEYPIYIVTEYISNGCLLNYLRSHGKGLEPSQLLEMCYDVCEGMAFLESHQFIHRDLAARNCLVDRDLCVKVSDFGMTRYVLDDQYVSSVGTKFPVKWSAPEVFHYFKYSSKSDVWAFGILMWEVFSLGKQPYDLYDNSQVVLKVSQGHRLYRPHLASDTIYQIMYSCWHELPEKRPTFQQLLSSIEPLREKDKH

In series [9] the target is panel of 255 wild-type kinases (Homo sapiens, UniProt P54756).
Series [10] has as its target panel of 255 wild-type kinases (Homo sapiens, UniProt P78368).
Series [11] deals with panel of 255 wild-type kinases (Homo sapiens, UniProt Q13177).
Series [12] deals with panel of 255 wild-type kinases (Homo sapiens, UniProt Q13627).
Series [13] has as its target panel of 255 wild-type kinases (Homo sapiens, UniProt Q9UPE1).
Series [14] has as its target panel of 255 wild-type kinases (Homo sapiens, UniProt Q9UQM7).
For series [15], the target named is panel of 255 wild-type kinases (Homo sapiens, UniProt Q9Y463).

For `COc1cc(N2CCC(N3CCN(C)CC3)CC2)ccc1Nc1ncc(Cl)c(Nc2ccccc2P(C)(C)=O)n1` [brigatinib], the “%-inhibition at 1 µmol/L, JAK2” value in series [1] was 90%. Moreover, in series [2], the “%-inhibition at 1 µmol/L, FES” value is recorded as 100%. For the same compound, the “%-inhibition at 1 µmol/L, ROS” value in series [3] is listed as 101%. For the same compound, in [4], the “%-inhibition at 1 µmol/L, FER” value is on record as 102%. In [5], the “%-inhibition CDK2/CycA2” value is 53% and the “%-inhibition CDK2/CycE1” value is 30%. In [6], the “%-inhibition at 1 µmol/L, CLK1” value is 100%. For the same compound, the “%-inhibition at 1 µmol/L, CLK3” value in [7] is listed as 33%. Further, the “%-inhibition BMX” value in [8] is 18%. In addition, the “%-inhibition at 1 µmol/L, EPHA5” value in series [9] was 4%. Besides, the “%-inhibition at 1 µmol/L, CK1γ2” value in series [10] is reported as -2.5%. In series [11], the “%-inhibition, PAK2” value is reported as 16%. The “%-inhibition at 1 µmol/L, DYRK1A” value in series [12] is 38%. Further, in series [13], the “%-inhibition, MSSK1” value was 5.3%. Besides, the “%-inhibition CaMK2α” value in series [14] is recorded as 86%. In addition, in series [15], the “%-inhibition at 1 µmol/L, DYRK1B” value is given as 41%.
